Reference: US10792282B2, “Protein kinase C inhibitors and uses thereof” (Rigel Pharmaceuticals, Inc., priority 2013, dated 2020)
Where two headings read alike, the source gives them in different places.

Test system: PKC mediated IL-2 production
Assay: IL-2 ELISA, human primary T cell, anti CD3+CD28+ (whole cell functional assay)
Type: cell-based
Description: Human primary T cells were prepared as follows. Fresh PBMC's from All Cells (Cat # PB002) were re-suspended in RPMI (RPMI-1640 with L-Glutamine; Mediatech, Inc., Herndon Va., cat. #10-040-CM) with 10% FBS and seeded into flasks and incubated at 37° C. for 2 hours to allow the monocytes to adhere. The non-adherent cells were then centrifuged and re-suspended in RPMI medium containing 40 U/ml IL2 and seeded into a flask pre-coated with 1 μg/ml aCD3 and 5 ug/ml aCD28 (Anti-Human CD3, BD Pharmingen Catalog #555336, Anti-Human CD28, Beckman Coulter Catalog # IM1376). The cells were stimulated for 3-4 days, then transferred to a fresh flask and maintained in RPMI (RPMI-1640 with L-Glutamine; Mediatech, Inc., Herndon Va., cat. #10-040-CM) with 10% FBS and 40 U/ml IL-2.
(§1) Human primary T cells (100,000 cells per well) were pre-incubated with or without test compound in RPMI-1640 with L-Glutamine and 10% FBS for 1 hour at 37° C. Cells were then stimulated by transferring them to round-bottom 96-well plates pre-coated with 1 μg/ml αCD3 and 5 μg/ml αCD28. For counter assay, cells were instead stimulated by adding 8× stock solutions of PMA and ionomycin in RPMI-1640 with L-Glutamine and 10% FBS (for final concentrations of 0.5 ng/ml PMA and 0.1 μM ionomycin, both from Calbiochem). Cells were incubated at 37° C. for 24 hours before 100 μL supernatants were harvested for quantification of IL-2 by ELISA using Human IL-2 Duoset ELISA Kit from R and D Systems, Cat. # DY202E.
Compounds 1-90 were tested in a whole cell functional assay for PKC mediated IL-2 production as follows. Human primary T cell isolation and culture: Human primary T cells were prepared as follows. Whole blood was obtained from a healthy volunteer, mixed 1:1 with PBS, layered on to Ficoll Hypaque (Amersham Pharmacia Biotech, Piscataway, N.J., Catalog #17-1440-03) in 2:1 blood/PBS:ficoll ratio and centrifuged for 30 minutes at 4° C. at 1750 rpm. The cells at the serum: ficoll interface were recovered and washed twice with 5 volumes of PBS. These freshly isolated human peripheral blood mononuclear cells were cultured in Yssel's medium containing 40 U/ml IL2 in a flask pre-coated with 1 μg/ml αCD3 and 5 μg/ml αCD28 (Anti-Human CD3, BD Pharmingen Catalog #555336, Anti-Human CD28, Beckman Coulter Catalog # IM1376). The cells were stimulated for 3-4 days, then transferred to a fresh flask and maintained in RPMI (RPMI-1640 with L-Glutamine; Mediatech, Inc., Herndon Va., cat. #10-040-CM) with 10% FBS and 40 U/ml IL-2. The primary T-cells were then washed twice with PBS to remove the IL-2.
as §1, with “Primary T cell stimulation and IL2 ELISA: Human primary” for “Human primary”, “compound in Yssel's medium for 1” for “compound in RPMI-1640 with L-Glutamine and 10% FBS for 1”, “ionomycin in Yssels (for final” for “ionomycin in RPMI-1640 with L-Glutamine and 10% FBS (for final”, “and 0.1 uM ionomycin, both” for “and 0.1 μM ionomycin, both”

[1] = IL-2 production, human primary T cells stimulated with αCD3 and αCD28, 24 hours, IL-2 by ELISA, read-out: EC50
[2] = Homo sapiens, T-cell, 24 h, IL-2 production, human primary T cells stimulated with αCD3 and αCD28, 24 hours, IL-2 by ELISA, read-out: EC50
[3] = Homo sapiens, T-cell, human primary T cells stimulated with αCD3 and αCD28, IL-2 by ELISA, read-out: EC50 (blocked IL-2 production)

Row | SMILES | EC50 [1] [µM] | EC50 [2] [µM] | EC50 [3] [µM] | EC50 (T-cell, human primary T cells stimulated with αCD3 and αCD28, IL-2 by ELISA, read-out: EC50 (blocked IL-2 production)) [µM]
1 | CC1(C)Oc2ccc(Nc3ncc(F)c(NC4CC5CCCN5C(C)(C)C4)n3)cc2-n2nnnc21 (centres unmarked) [Compound 3, N2-(4,4-dimethyl-4H-benzo[b]tetrazolo[1,5-d][1,4]oxazin-8-yl)-5-fluoro-N4-(octahydro-5,5-dimethylindolizin-7-amine)pyrimidine-2,4-diamine] | < 1 | – | – | –
2 | Cn1nnn(-c2cc(Nc3ncc(F)c(N[C@@H]4C[C@@H]5C[C@@H](O)CN5C(C)(C)C4)n3)c(F)cc2C2CC2)c1=O [Compound 68, 1-(5-(4-((2R,7R,8aR)-2-hydroxy-octahydro-5,5-dimethylindolizin-7-ylamino)-5-fluoropyrimidin-2-ylamino)-2-cyclopropyl-4-fluorophenyl)-4-methyl-1H-tetrazol-5(4H)-one] | – | < 0.5 | < 10 | –
3 | CC1(C)Oc2ccc(Nc3ncc(F)c(NC4CC5CCCN5C(C)(C)C4)n3)cc2-n2nnnc21 (centres unmarked) [Compound 1, N2-(4,4-dimethyl-4H-benzo[b]tetrazolo[1,5-d][1,4]oxazin-8-yl)-5-fluoro-N4-(octahydro-5,5-dimethylindolizin-7-amine)pyrimidine-2,4-diamine] | < 0.5 | – | – | –
4 | Cn1nnn(-c2cc(Nc3ncc(F)c(NC4CC(=O)N5C(CCC5(C)C)C4)n3)c(F)cc2C2CC2)c1=O (centres unmarked) [Compound 30] | – | > 10 | < 10 | –
5 | Cn1nnn(-c2cc(Nc3ncc(C#N)c(N[C@@H]4C[C@@H]5CCCN5C(C)(C)C4)n3)c(F)cc2OCCO)c1=O [Compound 78, 4-((7R,8aS)-octahydro-5,5-dimethylindolizin-7-ylamino)-2-(4-(2-hydroxyethoxy)-2-fluoro-5-(4,5-dihydro-4-methyl-5-oxotetrazol-1-yl)phenylamino)pyrimidine-5-carbonitrile] | – | < 0.1 | < 10 | –
6 | COc1cc(Nc2ncc(F)c(NC3CC4CCCN4C(C)(C)C3)n2)cc(-n2nnnc2C)c1 (centres unmarked) [Compound 11, (R/S, S/R, R/R, S/S)-5-fluoro-N4-(octahydro-5,5-dimethylindolizin-7-yl)N2-(3-methoxy-5-(5-methyl-1H-tetrazol-1-yl)phenyl)pyrimidine-2,4-diamine] | < 10 | – | – | –
7 | Cn1nnn(-c2cc(Nc3ncc(F)c(N[C@@H]4C[C@@H]5CCCN5C(C)(C)C4)n3)ccc2OC2CCOCC2)c1=O [Compound 52, 1-(5-(5-fluoro-4-(octahydro-5,5-dimethylindolizin-7-ylamino)pyrimidin-2-ylamino)-2-(tetrahydro-2H-pyran-4-yloxy)phenyl)-4-methyl-1H-tetrazol-5(4H)-one] | – | < 0.5 | < 10 | –
8 | CC1(C)CC(Nc2nc(Nc3ccc(O[C@H]4CCOC4)c(C#N)c3)ncc2F)CC2CCCN21 (single isomer, unassigned) [Compound 61] | – | < 1 | < 10 | –
9 | Cn1nnn(-c2cc(Nc3ncc(F)c(NC4CCN5C(CCC5(C)C)C4)n3)c(F)cc2C2CC2)c1=O (single isomer, unassigned) [Compound 34, 1-(5-(5-fluoro-4-(octahydro-3,3-dimethylindolizin-7-ylamino)pyrimidin-2-ylamino)-2-cyclopropyl-4-fluorophenyl)-4-methyl-1H-tetrazol-5(4H)-one] | – | < 10 | < 10 | –
10 | Cn1nnn(-c2cc(Nc3ncc(F)c(N[C@H]4C[C@@H]5CCC(=O)N5C(C)(C)C4)n3)c(F)cc2C2CC2)c1=O (racemic) [Compound 32, 1-(5-(5-fluoro-4-(hexahydro-5,5-dimethylindolizin-3(5H)-one-7-ylamino)pyrimidin-2-ylamino)-2-cyclopropyl-4-fluorophenyl)-4-methyl-1H-tetrazol-5(4H)-one] | – | < 10 | < 10 | –
11 | CC1C(Nc2nc(Nc3cc(OC(F)F)c(C4CC4)cc3F)ncc2F)CC(C)(C)N2CCCC12 (centres unmarked) [Compound 75] | < 0.5 | – | – | –
12 | CC1(C)CC(Nc2nc(Nc3ccc(OC4CCOCC4)c(C#N)c3)ncc2F)CC2CCCN21 (single isomer, unassigned) [Compound 41, 5-(5-fluoro-4-(octahydro-5,5-dimethylindolizin-7-ylamino)pyrimidin-2-ylamino)-2-(tetrahydro-2H-pyran-4-yloxy)benzonitrile] | – | < 0.5 | < 10 | –
13 | CC1(C)CC(Nc2nc(Nc3ccc(O[C@H]4CCOC4)c(C#N)c3)ncc2F)CC2CCCN21 (stereo partly drawn) [Compound 60, 2-((S)-tetrahydrofuran-3-yloxy)-5-(5-fluoro-4-(octahydro-5,5-dimethylindolizin-7-ylamino)pyrimidin-2-ylamino)benzonitrile] | – | < 0.5 | < 10 | –
14 | Cn1nnn(-c2cc(Nc3ncc(C#N)c(N[C@@H]4C[C@@H]5CCCN5C(C)(C)C4)n3)c(F)cc2OC(C)(C)CO)c1=O [Compound 84, 4-((7R,8aS)-octahydro-5,5-dimethylindolizin-7-ylamino)-2-(4-(1-hydroxy-2-methylpropan-2-yloxy)-2-fluoro-5-(4,5-dihydro-4-methyl-5-oxotetrazol-1-yl)phenylamino)pyrimidine-5-carbonitrile] | – | < 0.5 | < 10 | –
15 | Cn1nnn(-c2cc(Nc3ncc(F)c(N[C@@H]4C[C@@H]5CCCN5C(C)(C)C4)n3)c(F)cc2OCCO)c1=O [Compound 77, 1-(2-(2-hydroxyethoxy)-5-(4-((7R,8aS)-octahydro-5,5-dimethylindolizin-7-ylamino)-5-fluoropyrimidin-2-ylamino)-4-fluorophenyl)-4-methyl-1H-tetrazol-5(4H)-one] | – | – | – | < 10
16 | Cn1nnn(-c2cc(Nc3ncc(F)c(N[C@@H]4CCN5[C@@H](CCC5(C)C)C4)n3)c(F)cc2C2CC2)c1=O (single isomer, unassigned) [Compound 36] | < 10 | – | – | –
17 | Cn1nnn(-c2cc(Nc3ncc(F)c(N[C@@H]4C[C@@H]5CCCN5C(C)(C)C4)n3)ccc2O[C@@H]2CCOC2)c1=O [Compound 48, 1-(2-((R)-tetrahydrofuran-3-yloxy)-5-(5-fluoro-4-(octahydro-5,5-dimethylindolizin-7-ylamino)pyrimidin-2-ylamino)phenyl)-4-methyl-1H-tetrazol-5(4H)-one] | – | < 0.1 | < 10 | –
18 | Cn1nnn(-c2cc(Nc3ncc(F)c(N[C@@H]4C[C@@H]5CCCN5C(C)(C)C4)n3)ccc2O[C@H]2CCOC2)c1=O [Compound 50, 1-(2-((S)-tetrahydrofuran-3-yloxy)-5-(5-fluoro-4-(octahydro-5,5-dimethylindolizin-7-ylamino)pyrimidin-2-ylamino)phenyl)-4-methyl-1H-tetrazol-5(4H)-one] | – | < 0.1 | < 10 | –
19 | CC1(C)C[C@H](Nc2nc(Nc3cc(-n4cnnn4)c(C4CC4)cc3F)ncc2C#N)C[C@@H]2CCCN21 (racemic) [Compound 56, (±)-2-(4-cyclopropyl-2-fluoro-5-(1H-tetrazol-1-yl)phenylamino)-4-(octahydro-5,5-dimethylindolizin-7-ylamino)pyrimidine-5-carbonitrile] | – | < 0.1 | < 10 | –
20 | CC1(C)CC(Nc2nc(Nc3cc(-n4cnnn4)c(C4CC4)cc3F)ncc2F)CC2CCCN21 (racemic) [Compound 54, (±)-N2-(4-cyclopropyl-2-fluoro-5-(1H-tetrazol-1-yl)phenyl)-5-fluoro-n^4-(octahydro-5,5-dimethylindolizin-7-yl)pyrimidine-2,4-diamine] | < 0.1 | – | – | –
21 | CC1(C)CC(Nc2nc(Nc3ccc(O[C@@H]4CCOC4)c(C#N)c3)ncc2F)CC2CCCN21 (single isomer, unassigned) [Compound 58] | < 10 | – | < 10 | –
